Where “and” joins values, the source holds several entries; their conditions need not be identical. Identical values can stand only once.
Key:
interscapular BAT [1] = experiment: Top-down whole-organism NIR fluorescence screening of dyes (ROI1/ROI2 contrast); format: in vivo, nude mice; conditions: for visible contrast around the interscapular BAT area: in vivo NIR images; for Ratio AVERAGE (mean ratio ROI1/ROI2): i.v., mean of three filter pairs, hit threshold >1.10
Protocol: 38 fluorescent dyes from commercial resources and from the inventors' laboratory were screened. Dyes with excitation range of 550-745 nm, emission range of 600-840 nm, and with molecular weight of less than 700 Da (except Cy5.5) (representative dyes are listed in FIG. 1d and the full list is shown in Table 2). Their hydrophobicities were not determined. The library was screened by intravenous tail injection of compounds into nude mice (10μg/mouse). Each dye was imaged with three optimized excitation/emission filter-pairs, and images at one hour after i.v. injection were acquired.
Top-down whole organism screening was performed as follows. Nude mice (nu/nu COX7) were purchased from Massachusetts General Hospital and Balb/c mice were from Jackson Laboratory. All animal experimental procedures were approved by the Institutional Animal Care and Use Committee (IACUC) at Massachusetts General Hospital. Dye stock solutions were prepared in DMSO. The final injection solution (0.1 mg/ml) was freshly prepared in a mixed solution of 20% DMSO, 20% Cremophor EL and 60% saline. Nude mice (n=5) were injected with a 100 μL dye solution via tail vein. For each imaging session, mice were anesthetized with a mixture of oxygen and isoflurane for 5 minutes, and then positioned into the imaging chamber of IVIS® Spectrum in vivo pre-clinical imaging system. Images were acquired at one-hour post-injection using sequence imaging with three excitation/emission filter pairs for each dye.
Hits selection was performed as follows. Hits from cell- or protein-based screening are usually selected by setting certain threshold. In the case of the top-down imaging screening, two methods were used (threshold and visible contrast) to select hits. First, three images obtained with three excitation/emission pairs were selected for each dye. These ex/em pairs were selected from the closest excitation and emission wavelengths of the tested dyes. For instance, 605/660 nm, 605/680 nm, 640/680 nm were selected for image acquisition of Nile blue (625/660 nm). The quantification of contrast for each image was calculated as a ratio of two ROIs (region of interest). ROI1 reflected the average signal from interscapular BAT and ROI2 was the average signal of the area that included BAT and white adipose tissue (WAT) around the interscapular site (FIG. 1b, left). The averaged fluorescent signal of ROI was used instead of the total signal, because the total signal depends on the area of ROI, whereas the averaged signal reflects the density of signal. The ratio of ROI1/ROI2 could reflect the signal/noise ratio of the tested probe, and could also reflect the selectivity of the probe for BAT over WAT. For each dye, three ROI1/ROI2 ratios obtained with the three filter pairs were calculated. The mean of the ratios was used as the threshold. If the mean ratio was >1.10, the dye was selected as a potential positive hit (FIG. 1c). Since the contrast of a dye in the top-down screening is in the visible range, the visible contrast around the interscapular BAT area was also tested for the hits with the mean ratio of >1.10. If both mean ratio and the visible contrast were positive, then the hit was subjected to re-testing procedure to validate its reliability as described below.
Although CRANAD-2 and CRANAD-3 were able to provide certain contrast for BAT in vivo, their excitation and emission wavelengths were still shorter than required for an ideal NIR imaging probe (both excitation and emission >640 nm). […] To seek better probes, a sub-library was synthesized based on the structures of the lead probes CRANAD-2 and -3. CRANAD-6, -19, -22, -24, -26, -32 and -43 were synthesized and tested (images and chemical structures, excitation and emission spectra are shown in FIG. 9 a-e). […] However, the ROI1/ROI2 ratio of CRANAD-22 was not improved (FIG. 9c).

[2] = Excitation and emission wavelengths of BAT imaging agents; format: physicochemical
Protocol: In some embodiments, the methods include irradiating the mammal with light of the appropriate wavelength to excite the BAT imaging agent, and detecting emissions therefrom.
Fluorescent dyes were purchased from Exciton Inc. (Dayton, Ohio) and Invitrogen. The reagents used for the synthesis were purchased from Aldrich and used without further purification. Column chromatography was performed on silica gel (SiliCycle Inc., 60 Å, […]) slurry packed into glass columns. 1H, 13C NMR spectra were recorded at 500 MHz and 125 MHz respectively, and reported in ppm downfield from tetramethylsilane. Fluorescence studies were carried out using a F-4500 Fluorescence Spectrophotometer (Hitachi). Mass spectra were obtained at Harvard University, Department of Chemistry Instrumentation Facility. Microscopic images were acquired with Nikon Eclipse 50i microscope. In vivo NIR imaging was performed using the IVIS® Spectrum animal imaging system (Caliper LifeSciences, Perkin Elmer, Hopkinton, Mass.), and data analysis was conducted using LivingImage® 4.2.1 software.

interscapular BAT [3] = experiment: Re-testing of hits with stepwise dissection and NIR imaging; format: in vivo, mice
Protocol: Like protein/cell-based screening, hit re-testing experiments were conducted to validate the reliability of this approach. CRANAD-2, -3, LDS 722 and Rhodamine 640 were subjected to re-testing by repeating the above imaging procedure. Images were acquired one hour after probe injection.
Next, stepwise dissection and imaging were performed to track the source of the fluorescence contrast at the interscapular site. Skin and the thin WAT layer that covers BAT were first removed, and then BAT was dissected, and NIR images were captured at each step. […] The signal contribution from BAT (R(BAT)) was roughly estimated using the ratio of fluorescence signals acquired after (F(BAT)) and before (F(intact)) the first step dissection of skin and WAT.

[4] = nude mice, one hour post-injection

Emission λ [2] | Excitation λ [2] | Structure (SMILES) | visible contrast around the interscapular BAT area (interscapular BAT [1]) | Ratio No 1 (ROI1/ROI2 average fluorescence intensity) (interscapular BAT [1]; nude mice, 10 μg/mouse i.v., one hour post-injection, first excitation/emission filter pair) | Ratio No 2 (ROI1/ROI2 average fluorescence intensity) (interscapular BAT [1]; nude mice, 10 μg/mouse i.v., one hour post-injection, second excitation/emission filter pair) | Ratio No 3 (ROI1/ROI2 average fluorescence intensity) (interscapular BAT [1]; nude mice, 10 μg/mouse i.v., one hour post-injection, third excitation/emission filter pair) | Ratio AVERAGE (mean ratio ROI1/ROI2) (interscapular BAT [1]; [4]) | R(BAT), signal contribution from BAT, F(BAT)/F(intact) (interscapular BAT [3]; fluorescence after vs before dissection of skin and WAT, roughly estimated) | contrast among the re-tested dyes (interscapular BAT [3]; images one hour after probe injection) | fluorescence signal from BAT (before vs after BAT removal) (interscapular BAT [3]; stepwise dissection) | selectivity for BAT (over WAT) (interscapular BAT [3]; stepwise dissection) | F(BAT)/F(intact) ratio compared with CRANAD-2 and -3 (interscapular BAT [3]; stepwise dissection)
680 nm | 605 nm | CN(C)c1ccc(/C=C/C2=CC(=C/C=C3C=CC(=[N+](C)C)C=C3)/O[B-](F)(F)O2)cc1 [CRANAD-2] | best contrast and clear triangular contour | 1.31E+00 | 1.26E+00 | 1.26E+00 | 1.28 and 1.28E+00 | about 0.26 | highest contrast | able to label BAT | low | 
700 nm | 640 nm | F[B-]1(F)OC(/C=C/c2cc3c4c(c2)CCCN4CCC3)=CC(/C=C/c2cc3c4c(c2)CCCN4CCC3)=[O+]1 [CRANAD-29] | excellent contrast and a very clear contour of BAT |  |  |  | 1.36 |  |  |  | excellent selectivity | much higher
